Experimental data published in US7863415B2 (The Regents of the University of California, priority 2004, dated 2011).
“Also recorded” adds a separate entry of the source. Where two headings read alike, the source gives them in different places. Starred links: 1 amine or outer side, 2 acyl side, 3 side chain; linkers in the order of their positions; H or OH if unused. Non-standard residues stand in square brackets, D forms with d. Residues, ends and D or L forms follow the SMILES beside them. No end group written: not given here. X1 = N=C(N)NC(=O)c1nc(Cl)c(N(CC(=O)[*:2])[*:1])nc1N

What was measured:
[1] = system: [Ca^2+]i in U87 glioma cells; assay: [Ca2+]i in U87 glioma cells loaded with fura-2AM, quantitative fluorescent microscopy; assay type: cell-based, human; conditions: U87 glioma cells
Description: Therefore, the levels of [Ca^2+]i in U87 glioma cells loaded with fura-2AM were measured using quantitative fluorescent microscopy. […] The ATP-dependent calcium regulatory mechanisms within U87 glioma cells containing fura-2 were then examined. […] ATP synthase operates in reverse when milimolar concentrations of calcium are stored by the mitochondrion (Nicholls, Bioenergetics, 3, Academic Press, London, 3rd edition (2002)).
Quantitative fluorescent microscopy of [Ca^2+]i levels. [Ca^2+]i levels can be measured in cells loaded with either fura-2A or fura-2FFAM under the conditions described above.

U87 glioma cells [2] = assay: Glioma cell death, manual cell counts with trypan blue exclusion; conditions: for Glioma Effect: cytotoxic concentration: glioma cells
[3] = system: glioma cells and primary astrocytes; assay: Cell entry by confocal microscopy; assay type: in vitro ADME
trypsin = molecular target: T1, trypsin (Bos taurus, UniProt P00760); assay: Enzyme digestion with trypsin (negative control), LC-MS/ESI; assay type: in vitro ADME, bovine; conditions: for Conclusion (Peptidase: Trypsin): 10 μM conjugate, 10 units enzyme, 25° C., pH 7.4, 24 h
T1 construct: purchased CalBiochem (San Diego, Calif.); host or cells: bovine pancreas
T1 sequence (P00760 24-246): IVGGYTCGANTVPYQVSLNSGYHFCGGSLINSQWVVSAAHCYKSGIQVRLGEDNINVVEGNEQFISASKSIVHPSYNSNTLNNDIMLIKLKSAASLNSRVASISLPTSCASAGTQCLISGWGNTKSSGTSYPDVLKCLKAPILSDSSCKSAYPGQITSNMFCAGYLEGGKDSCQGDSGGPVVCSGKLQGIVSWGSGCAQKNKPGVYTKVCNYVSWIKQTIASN
Description: (§1) Compound 3b is a C5am-Gly-peptide conjugate containing two D-amino acids, and compound 3c is a C5am-Gly-peptide conjugate coupled to a peptide to generate an analog of opioid peptides that cross the blood brain barrier (BBB). The resultant conjugates (compounds 3a-c) were tested for selective cleavage by the brain peptidase enkephalinase (neutral endopeptidase 24.11; Calbiochem) via incubation for 24 h in the presence or absence of the enzyme, and aliquots from the reaction solutions were then analyzed by LC-MS to identify the C5am-Gly conjugate (compound 3a), starting material, and enzymatic cleavage products (see, Scheme 3). As negative control experiments, the conjugates were analyzed following treatment with (1) bovine pancreatic trypsin (Calbiochem) or (2) the buffer solutions without enzymes.
(§2) Enzyme digestion. Endopeptidase 24.11 (neutral, porcine kidney) and trypsin (bovine pancreas) were purchased from CalBiochem (San Diego, Calif.) and used as received. Enzymatic cleavage experiments using endopeptidase 24.11 were conducted at 25° C. in a pH 7.4 Tris buffer (150 mM NaCl, 50 mM Tris, 0.1% Triton X-100) as recommended by the manufacturer (see also, Barnes et al., J. Neurochem., 64:1826-1832 (1995), Gafford et al., Biochemistry, 22:3265-3271 (1983)). Similarly, trypsin cleavage experiments were conducted at 25° C. in pH 7.4 Dulbecco's phosphate buffered saline (Gibco; Grand Island, N.Y.). The digestion reactions included 10 μM of the amiloride-peptide conjugate and 10 units of enzyme in 250 μL of buffer. Direct aliquots were analyzed by LC-MS/ESI following a 24 hour incubation period.
(§3) Enzyme Digestion Study. Compounds 3a-d were each incubated at 25° C. with 10 units of enkephalinase (endopeptidase 24.11) to determine their susceptibility towards enzymatic cleavage. Reaction aliquots were taken following a 24 hour incubation period and analyzed directly by LC-MS/ESI (Thermo Finnigan LCQ) for the presence of the starting material and the targeted cleavage product, compound 3a (C5am-Gly). […] Since there are no basic amino acid residues in compounds 3a-d, trypsin was employed as a negative control to ensure that any observed cleavage products could be ascribed only to endopeptidase-specific interactions (Jackson, Protein Science, 8:603-613 (1999)).

[4] = system: enkephalinase (endopeptidase 24.11); assay: Enzyme digestion with enkephalinase, LC-MS/ESI; assay type: in vitro ADME, porcine; conditions: for Conclusion (Peptidase: Enkephalinase): 10 μM conjugate, 10 units enzyme, 25° C., pH 7.4, 24 h; for Cleavage by enkephalinase (release of compound 3a): 24 h incubation, LC-MS
Description: as §1, §2, §3

NHE1 = NHE1 (Homo sapiens, UniProt P19634); assay: NHE1 inhibition: sodium-dependent pHi recovery in BCECF-loaded U87 glial cells after ammonium chloride pre-pulse; assay type: cell-based; design: Sodium-dependent proton extrusion in U87 glial cells and in primary astrocytes is mediated by the type 1 sodium proton exchanger (NHE1); endogenous in cells; host or cells: U87 human glioma cells
NHE1, sequence (P19634 whole entry): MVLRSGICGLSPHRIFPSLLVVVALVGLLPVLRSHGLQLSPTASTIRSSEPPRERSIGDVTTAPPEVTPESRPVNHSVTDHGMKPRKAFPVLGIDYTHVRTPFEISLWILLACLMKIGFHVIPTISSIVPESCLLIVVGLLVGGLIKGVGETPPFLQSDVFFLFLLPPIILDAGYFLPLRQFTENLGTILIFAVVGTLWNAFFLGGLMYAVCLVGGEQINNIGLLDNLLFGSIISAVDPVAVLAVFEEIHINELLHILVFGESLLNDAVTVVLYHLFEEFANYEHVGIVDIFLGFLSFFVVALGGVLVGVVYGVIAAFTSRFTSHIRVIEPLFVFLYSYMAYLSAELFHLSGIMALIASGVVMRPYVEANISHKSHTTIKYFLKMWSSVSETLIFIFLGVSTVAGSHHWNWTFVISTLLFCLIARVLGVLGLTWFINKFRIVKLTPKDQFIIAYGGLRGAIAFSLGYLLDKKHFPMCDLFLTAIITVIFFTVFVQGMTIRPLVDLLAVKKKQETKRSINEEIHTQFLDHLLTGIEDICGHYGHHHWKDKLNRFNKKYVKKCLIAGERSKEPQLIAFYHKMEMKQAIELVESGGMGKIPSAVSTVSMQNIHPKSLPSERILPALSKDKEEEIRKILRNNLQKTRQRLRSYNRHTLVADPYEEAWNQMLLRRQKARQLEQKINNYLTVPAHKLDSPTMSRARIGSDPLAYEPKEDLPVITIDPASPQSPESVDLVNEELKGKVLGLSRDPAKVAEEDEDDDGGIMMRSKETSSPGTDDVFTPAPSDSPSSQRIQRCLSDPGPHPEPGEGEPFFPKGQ
Description: Intracellular pH Measurements. U87 glial cells were grown on glass coverslips and incubated for 30 minutes at 37° C. with the pH-sensitive dye, 2′,7′-bis(2-carboxyethyl)-5(6)-carboxyfluorescein-AM (BCECF-AM; Molecular Probes, OR). Cells were rinsed with HEPES Ringer buffer twice and maintained at 37° C. for an additional 15 minutes to permit intracellular hydrolysis of the AM ester; trapping BCECF within the cells. Cells on coverslips were placed in a Hitachi F2000 fluorescent spectrophotometer and excited at 440 and 507 nm with fluorescent emissions recorded at 535 nm (Hegde et al., J. Pharmacol. Exp. Ther., 310:67-74 (2004)).
NHE inhibition by compounds 3a and 3c was evaluated using intracellular pH (pHi) measurements in the U87 human glial cell line (Hegde et al., supra). Cells loaded with BCECF were then acidified using the ammonium chloride pre-pulse method (Roos et al., Physiol Rev, 61:296-434 (1981)). The subsequent sodium-dependent recovery of pHi by these cells in the absence of bicarbonate was monitored using a spectrofluorometer. Sodium-dependent proton extrusion in U87 glial cells and in primary astrocytes is mediated by the type 1 sodium proton exchanger (NHE1) (McLean et al., supra; Hegde et al., supra) and was monitored in the presence or absence of compound 3a or 3c.
IC50 drug determinations for NHE1. This method utilizes spectrofluorometric measurements of [H^+]i as described above. The ammonium chloride prepulse method can be used to acidify cells in the presence of HR that is sodium-substituted with NMDG. Perfusion of the acidified cells with HR that contains sodium causes activation of NHE1 that is inhibited in a concentration-dependent fashion as described in McLean et al., supra.

U87 cells = assay: Intracellular translocation into U87 cells by fluorescence microscopy; conditions: 50 μM; 90 and 180 min; 380 nm excitation, 510 nm emission
Text: Fluorescence Microscopy. […] Excitation light was provided by a xenon arc lamp coupled to the Polychrome IV scanning monochromator (Till Photonics; Grafelfing, Germany) that alternately excites with different wavelengths. Excitation light was delivered by fiber optics to cells through the epifluorescence port of a Nikon E600 microscope coupled to a Nikon Fluor 60× water immersion lens. The detector was an Orca II-ER CCD digital camera (Hamamatsu USA; Bridgewater, N.J.), which is controlled by C-Imaging Simple PCI software (Compix; Cranberry Township, Pa.).
Intracellular emission intensities were collected in regions of interest (ROI) from an average of 4-8 cells/field using Simple PCI imaging software. […] Images were captured as TIFF files (C-imaging Simple PCI software), and light and fluorescent images of the same field were imported in Photoshop 6.0 and vector graphics added using Illustrator 9.0.1 (Adobe; San Jose, Calif.).

NHE1 and NCX = NHE1 and NCX inhibitors from the literature; cited from earlier work
U87 glioma cells [5] = assay: Glioma cell proliferation, manual cell counts with trypan blue; assay type: cell-based, human; conditions: glioma cells
Description: C(5)-amiloride glycine conjugate (C5am-Gly) inhibits NHE1 in U87 glioma cells and is antiproliferative. […] The inhibitory activity of C5am-Gly against NCX was tested and a systematic log dose screen of C5am-Gly against a panel of glioma cells and primary astrocytes was performed.
Manual cell counts with dye exclusion assays. Identical concentrations of glioma cells can be plated on 60 mm dishes and grown until 50% confluent. Following drug treatments, media containing floating cells can be collected in suspension. Adherent cells can be rinsed in calcium- and magnesium-free phosphate-buffered saline (PBS-CMF) and removed by incubation with 0.25% v/v trypsin for 5 minutes (37° C.). Cell suspensions can be combined with the floating fraction and centrifuged at 350×g for 5 minutes. The resulting pellet (one per dish) can be resuspended in equal volumes of PBS-CMF with 0.4% trypan blue and/or 500 nM Sytox Green. 10 μL aliquots of the suspension can be plated on a hemocytometer, and cells can be counted 5 minutes after staining. Simultaneous staining of cells with trypan (TB) and Sytox Green (SG) can be visualized by switching between visible light and fluorescein green.

What does the source list for N=C(NC(=O)CN)NC(=O)c1nc(Cl)c(N)nc1N [C2am-Gly]?
Effect on [Ca2+]i [1]: increased; Potency of killing glioma cells relative to amiloride (U87 glioma cells [2]): greater than 50 times; Concentration that killed U87 glioma cells (U87 glioma cells [2]; U87 glioma cells, C2am-Gly within 24 h): ≤ 10 µM; Glioma Effect: cytotoxic concentration (U87 glioma cells [2]): ≦10 μM cytotoxic; Cell entry by confocal microscopy [3]: not visualized entering

For CC(C)C[C@H](NC(=O)[C@H](Cc1ccccc1)NC(=O)CNC(=O)CNC(=O)CNC(=O)CNc1nc(N)c(C(=O)NC(=N)N)nc1Cl)C(=O)O [Compound 3c, C5am-Gly-Gly-Gly-Gly-Phe-Leu-OH] (H-[X1]GGGFL-OH), which “Conclusion (Peptidase: Trypsin)” value (trypsin) is on record?
Its value is “Trypsin-mediated cleavage”.

What about the “Cleavage by trypsin (release of compound 3a)” value (trypsin; 24 h incubation, LC-MS) of the same compound?
The value was “did not generate C5am-Gly; also recorded: did not release compound 3a”.

And the “Conclusion (Peptidase: Enkephalinase)” value [4]?
The value was “Enkephalinase-mediated”.

What about the “Cleavage by enkephalinase (release of compound 3a)” value [4] of the same compound?
Its value is “selectively cleaved; also recorded: released compound 3a; also recorded: complete digestion”.

What about the IC50 (NHE1; U87 glial cells, sodium-dependent pHi recovery without bicarbonate, read-out: IC50 (μM) +/− SD (NHE inhibition)) of the same compound?
Its IC50 is greater than 100 µM.

Which “Intracellular accumulation in U87 cells” value (U87 cells) does the source give for CCN(c1nc(N)c(C(=O)NC(=N)N)nc1Cl)C(C)C [EIPA, ethylisopropylamiloride] here?
Its value is “intracellular accumulation; also recorded: rapid cell permeation”.

What about the “Reversal of NHE1 inhibition after removal of compound” value (NHE1; U87 cells) of the same compound?
The value was “slow and incomplete recovery”.

What about the “Cell entry by confocal microscopy” value ([3]; C2am-Gly after 90-240 minutes) of the same compound?
The value was “Rapid cell permeation”.

For CS(=O)(=O)O.CS(=O)(=O)c1cc(C(=O)N=C(N)N)ccc1N1CCCCC1 [HOE694], which “Effect on [Ca2+]i” value [1] is on record?
Its value is “did not alter”.

Which “Time to kill glioma cells” value (U87 glioma cells [2]) does the source give for C[C@H](CCC(=O)O)C[C@H](C)C[C@H](C)C(=O)/C=C(\O)[C@H](C)C[C@H](C)C/C=C/[C@@H](C)[C@@H](O)[C@@H](C)[C@@H](O)C[C@@H]1CC[C@@](C)([C@H]2CC[C@@](C)([C@@H](C)O)O2)O1 [Ionomycin] here?
Its value is 90 to 180 min.

What does the source list for N=C(N)SCCc1ccc(OCc2ccc([N+](=O)[O-])cc2)cc1 [KB-R7943]?
Rel. Activity (NHE1 and NCX): NCX > NHE (blocks Ca^2+ influx); Effect of pretreatment on [Ca2+]i after calcium release from mitochondrial stores ([1]; FCCP or oligomycin): did not cause a persistent increase; Glioma Effect: cytotoxic concentration (U87 glioma cells [2]): not cytotoxic; Cytotoxicity to glioma cells (U87 glioma cells [2]; manual cell counts, trypan blue cell exclusion assay): non-toxic; Glioma Effect: antiproliferative concentration (U87 glioma cells [5]): not antiproliferative

For CCOc1ccc(Oc2ccc(OCc3cc(F)ccc3F)cc2)c(N)c1 [SEA0400], which “Rel. Activity” value (NHE1 and NCX) is on record?
The value was “NCX only no NHE activity (Ca^2+ influx mode > Ca^2+ efflux mode)”.

Which “[Ca2+]i transients” value ([1]; F0F1ATPase inhibition) does the source give for CC[C@H]1/C=C/C=C/C[C@@H](C)[C@H](O)[C@@](C)(O)C(=O)[C@@H](C)[C@H](O)[C@@H](C)C(=O)[C@@H](C)[C@H](O)[C@@H](C)/C=C/C(=O)O[C@@H]2[C@H](C)[C@H](CC1)O[C@]1(CC[C@H](C)[C@H](C[C@@H](C)O)O1)[C@H]2C [oligomycin] here?
The value was greater than 800 nM.

For C[C@@H]1O[C@@H](O[C@H]2C[C@@H](O)[C@]3(CO)[C@H]4[C@H](O)C[C@]5(C)[C@@H](C6=CC(=O)OC6)CC[C@]5(O)[C@@H]4CC[C@]3(O)C2)[C@H](O)[C@H](O)[C@H]1O [oubain], which “Effect on [Ca2+]i” value [1] is on record?
Its value is “did not demonstrably alter”.

Which “Effect on [Ca2+]i” value [1] does the source give for C/C=C(/C)C(=O)O[C@H]1C(C)=C2[C@H]([C@@H]1OC(=O)CCCCCCC)[C@@](C)(OC(C)=O)C[C@H](OC(=O)CCC)[C@@]1(O)[C@H]2OC(=O)[C@@]1(C)O [thapsigargin] here?
Its value is “modest and transient increase”.

Which results are given for “Compound 3d: C(5)-amiloride peptide conjugate prepared according to Scheme 1 with peptide sequence Gly-Gly-Gly-Phe-Leu (GGGFL; not fully specified (N-terminus); printed as Gly-Gly-Gly-Phe-Leu; also: C(5)-amiloride conjugate)”?
Conclusion (Peptidase: Trypsin) (trypsin): Trypsin resistant; Conclusion (Peptidase: Enkephalinase) [4]: Enkephalinase resistant; Cleavage by enkephalinase (release of compound 3a) [4]: did not liberate compound 3a
